Data taken from patent US20090088463A1, “Pyrazoles Useful in the Treatment of Inflammation” (priority 2005, published 2009).
pIC50: −log10 of the molar value.

biological target: T1, purified human 15-lipoxygenase (Homo sapiens, UniProt P16050); test: 15-lipoxygenase inhibition assay (arachidonic acid oxidation, HPLC readout); assay type: biochemical; settings: arachidonic acid substrate, room temperature
T1 sequence (P16050 1-662): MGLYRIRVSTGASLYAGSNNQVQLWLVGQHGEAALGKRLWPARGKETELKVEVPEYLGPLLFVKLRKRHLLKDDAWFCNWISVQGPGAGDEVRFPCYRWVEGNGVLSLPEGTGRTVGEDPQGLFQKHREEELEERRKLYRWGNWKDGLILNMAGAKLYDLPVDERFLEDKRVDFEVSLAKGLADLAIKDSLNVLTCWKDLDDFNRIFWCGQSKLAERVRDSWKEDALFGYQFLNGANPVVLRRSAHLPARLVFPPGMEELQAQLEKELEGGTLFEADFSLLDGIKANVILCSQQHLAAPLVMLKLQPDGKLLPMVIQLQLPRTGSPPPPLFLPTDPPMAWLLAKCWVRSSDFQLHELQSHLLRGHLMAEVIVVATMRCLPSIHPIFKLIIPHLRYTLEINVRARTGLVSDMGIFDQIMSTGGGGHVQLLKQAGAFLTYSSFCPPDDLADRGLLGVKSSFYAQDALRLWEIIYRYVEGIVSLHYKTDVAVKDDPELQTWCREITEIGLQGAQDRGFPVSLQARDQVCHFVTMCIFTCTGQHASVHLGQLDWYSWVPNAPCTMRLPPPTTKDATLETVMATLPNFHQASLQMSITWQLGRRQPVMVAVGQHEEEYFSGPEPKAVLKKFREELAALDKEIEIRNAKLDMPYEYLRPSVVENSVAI
Description: The assay employed takes advantage of the ability of lipoxygenases to oxidize polyunsaturated fatty acids, containing a 1,4-cis-pentadiene configuration, to their corresponding hydroperoxy or hydroxyl derivatives. In this particular assay, the lipoxygenase was a purified human 15-lipoxygenase and the fatty acid was arachidonic acid. The assay is performed at room temperature (20-22° C.) and the following are added to each well in a 96-well microtiter plate:
a) 35 μL phosphate buffered saline (PBS) (pH 7.4); b) inhibitor (i.e. compound) or vehicle (0.5 μl DMSO); c) 10 μL of a 10× concentrated solution of 15-lipoxygenase in PBS. The plates are incubated for 5 minutes at room temperature; d) 5 μl of 0.125 mM arachidonic acid in PBS. The plate is then incubated for 10 minutes at room temperature; e) the enzymatic reaction is terminated by the addition of 100 μl methanol; and
f) the amount of 15-hydroperoxy-eicosatetraenoic acid or 15-hydroxy-eicosatetraenoic acid is measured by reverse phase HPLC.

pIC50 | Structure (SMILES)
5.74 | O=C(Nc1ccc(F)c(F)c1F)c1cc[nH]n1 [Example 7, N-(2,3,4-Trifluorophenyl)pyrazole-3-carboxamide]
6.12 | Cc1cc(Cl)ccc1NC(=O)c1cc[nH]n1 [Example 9, N-(4-Chloro-2-methylphenyl)pyrazole-3-carboxamide]
6.85 | O=C(Nc1ccc(Br)cc1OC(F)(F)F)c1cc[nH]n1 [Example 15, N-(4-Bromo-2-trifluoromethoxyphenyl)pyrazole-3-carboxamide]
5.96 | O=C(Nc1cc(Cl)ccc1Cl)c1cc[nH]n1 [Example 13, N-(2,5-Dichlorophenyl)pyrazole-3-carboxamide]
6.08 | Cc1ccc(NC(=O)c2cc[nH]n2)c(C)c1 [Example 14, N-(2,4-Dimethylphenyl)pyrazole-3-carboxamide]
6.80 | O=C(Nc1ccc(OC(F)(F)F)cc1Br)c1cc[nH]n1 [Example 2, N-(2-Bromo-4-trifluoromethoxyphenyl)pyrazole-3-carboxamide]
